From patent US20100152129A1 (priority 2008, published 2010)
Values joined by “and” are separate entries in the source; they are usually repeats but may differ in a detail not shown here. Identical values can stand only once.

Key:
Panc-1 cells [1] = assay: CCK-8 based cytotoxicity assay; type: cell-based
From the text: CCK-8 based cytotoxicity assay is a sensitive nonradioactive colorimetric assay for determining the number of viable cells in cell proliferation and cytotoxicity assays. WST-8 (2-(2-methoxy-4-nitrophenyl)-3-(4-nitrophenyl)-5-(2,4-disulfophenyl)-2H tetrazolium, monosodium salt) is bioreduced by cellular dehydrogenases to an orange formazan product that is soluble in tissue culture medium. The amount of formazan produced is directly proportional to the number of living cells.
Test System: The Panc-1 cell line was procured from ATCC (American Tissue type Culture Collection USA, catalog number: CRL-1469) and the frozen vial was stored in liquid nitrogen container.
Panc-1 cells were seeded at a density of 3000 cells/well in a 96 well plate and allowed to recover for 24 hrs in a CO2 incubator at 37° C. […] The final DMSO concentration was 0.5% in wells. Plates were incubated for 24, 48, and 72 hrs. At the end of incubation CCK-8 was added and kept at 37° C. for 3 hrs following which absorbance was measured at 450 nm.

Panc-1 cells [2] = assay: Protein expression using high content cell imaging system, and efficacy score; type: cell-based; settings: for Efficacy score: cumulative over proteins of Table 7
Description: The data was generated using cell imaging system, where, cells after drug exposure were treated with protein specific antibody, followed by detection markers for the antibody. The images were generated and protein levels quantitated as an indication of drug effect.
Methodology: Panc-1 cells were seeded at a density of 5000 cells per well in 96 well plates and allowed recovery for 24 hrs in 5% CO2 incubator. After recovery, cells were challenged with Gemcitabine (IC30) for 24 hrs. After 24 hrs Gemcitabine was removed and fresh medium was added. […] The combination efficacy was identified against single treatments. At the end of the experiment Panc-1 cells were fixed and permeabilized. All the primary antibodies were added at a concentration according to manufacture protocol. After one hour incubation the cells were washed three times and labeled with secondary antibodies tagged with Dye Light 548 and nucleus was stained with Hoechest3342. After antibody labeling, cells were stained with the Cellomics whole Cell Stain Green to identify the cell's cytoplasmic area. Then all the plates were scanned in Cellomics ArrayScan® VTI HCS Reader. The results were analyzed using software that is designed for measuring the read from the imaging system.
Expression of proteins listed in Table 7 were determined in terms of fluorescence unit obtained by using target activation algorithm from High content imaging system from Cellomics. • Protein expression data expressed as fluorescent units from Table 7 were used to generate expression ratio by comparing drug treatments (individual or combination) against the normal control with no drug treatment. The ratio of expression which is considered as dys-regulation (1.5 fold above or below the range for up-regulation and down regulation respectively) is subtracted from the normal range (±1.5) and is used to measure the efficacy score.
Expression ratio=protein expression during drug treatment/protein expression under normal control.
Efficacy score =Cumulative score (expression ratio−±1.50) for all proteins.

[3] = system: xenograft models of colon cancer (HCT-116, SW-480) and non-small cell lung cancer (H-460); settings: oral administration; SCID mice; cited from earlier work
[4] = preclinical studies; cited from earlier work
[5] = 6 hours post treatment, control 3
[6] = 36 hours post treatment, control 98

CN1CC[C@@H](c2c(O)cc(O)c3c(=O)cc(-c4ccc(C(F)(F)F)cc4Cl)oc23)[C@@H]1CO.Cl (relative stereo) [P1446A]
% Cytotoxicity (Panc-1 cells [1]; P1446A 30 nM, 24 hrs): 29.825% | % Cytotoxicity (Panc-1 cells [1]; P1446A 30 nM, 72 hrs): 23.33% | % Cytotoxicity (Panc-1 cells [1]; P1446A 100 nM, 24 hrs): 26.525% | % Cytotoxicity (Panc-1 cells [1]; P1446A 100 nM, 48 hrs): 24.596% | % Cytotoxicity (Panc-1 cells [1]; P1446A 300 nM, 24 hrs): 34.36% | % Cytotoxicity (Panc-1 cells [1]; P1446A 300 nM, 48 hrs): 28.636% | % Cytotoxicity (Panc-1 cells [1]; P1446A 300 nM, 72 hrs, hydrochloride): 31.05% and 31.075% | PTN protein expression (Panc-1 cells [2]; 6 hours post treatment, control 1): 3 fluorescence units | GADD45-α protein expression (Panc-1 cells [2]; [5]): 3 fluorescence units | ID1 protein expression (Panc-1 cells [2]; [5]): 38 fluorescence units | P27 protein expression (Panc-1 cells [2]; 6 hours post treatment, control 6): 4 fluorescence units | CDC25B protein expression (Panc-1 cells [2]; 6 hours post treatment, control 7): 4 fluorescence units | CDKN2A protein expression (Panc-1 cells [2]; 6 hours post treatment, control 8): 49 fluorescence units | CCND1 protein expression (Panc-1 cells [2]; 6 hours post treatment, control 74): 87 fluorescence units | GAPDH protein expression (Panc-1 cells [2]; 6 hours post treatment, control 80): 78 fluorescence units | CASP3 protein expression (Panc-1 cells [2]; 6 hours post treatment, control 147): 102 fluorescence units | MMP-1 protein expression (Panc-1 cells [2]; 6 hours post treatment, control 501): 235 fluorescence units | COX15 protein expression (Panc-1 cells [2]; 6 hours post treatment, control 627): 628 fluorescence units | COX2 protein expression (Panc-1 cells [2]; 6 hours post treatment, control 635): 457 fluorescence units | BAX protein expression (Panc-1 cells [2]; 6 hours post treatment, control 819): 421 fluorescence units | VEGF protein expression (Panc-1 cells [2]; 6 hours post treatment, control 829): 235 fluorescence units | BCL2 protein expression (Panc-1 cells [2]; 6 hours post treatment, control 830): 587 fluorescence units | pRB protein expression (Panc-1 cells [2]; 6 hours post treatment, control 1240): 1489 fluorescence units | Efficacy score (Panc-1 cells [2]; 6 hours): 2.1 | GADD45-α protein expression (Panc-1 cells [2]; 16 hours post treatment, control 13): 46 fluorescence units | CDC25B protein expression (Panc-1 cells [2]; 16 hours post treatment, control 54): 45 fluorescence units | CDKN2A protein expression (Panc-1 cells [2]; 16 hours post treatment, control 64): 55 fluorescence units | P27 protein expression (Panc-1 cells [2]; 16 hours post treatment, control 67): 37 fluorescence units | PTN protein expression (Panc-1 cells [2]; 16 hours post treatment, control 76): 34 fluorescence units | ID1 protein expression (Panc-1 cells [2]; 16 hours post treatment, control 77): 67 fluorescence units | CCND1 protein expression (Panc-1 cells [2]; 16 hours post treatment, control 90): 85 fluorescence units | GAPDH protein expression (Panc-1 cells [2]; 16 hours post treatment, control 100): 100 fluorescence units | CASP3 protein expression (Panc-1 cells [2]; 16 hours post treatment, control 202): 1157 fluorescence units | VEGF protein expression (Panc-1 cells [2]; 16 hours post treatment, control 579): 420 fluorescence units | BCL2 protein expression (Panc-1 cells [2]; 16 hours post treatment, control 644): 546 fluorescence units | BAX protein expression (Panc-1 cells [2]; 16 hours post treatment, control 711): 688 fluorescence units | COX15 protein expression (Panc-1 cells [2]; 16 hours post treatment, control 718): 896 fluorescence units | MMP-1 protein expression (Panc-1 cells [2]; 16 hours post treatment, control 929): 420 fluorescence units | COX2 protein expression (Panc-1 cells [2]; 16 hours post treatment, control 1109): 1063 fluorescence units | pRB protein expression (Panc-1 cells [2]; 16 hours post treatment, control 2583): 1721 fluorescence units | Efficacy score (Panc-1 cells [2]; 16 hours): 10.3 | GADD45-α protein expression (Panc-1 cells [2]; 36 hours post treatment, control 19): 43 fluorescence units | COX2 protein expression (Panc-1 cells [2]; 36 hours post treatment, control 86): 43 fluorescence units | P27 protein expression (Panc-1 cells [2]; 36 hours post treatment, control 96): 65 fluorescence units | CCND1 protein expression (Panc-1 cells [2]; [6]): 55 fluorescence units | CDC25B protein expression (Panc-1 cells [2]; [6]): 70 fluorescence units | GAPDH protein expression (Panc-1 cells [2]; [6]): 63 fluorescence units | ID1 protein expression (Panc-1 cells [2]; [6]): 83 fluorescence units | PTN protein expression (Panc-1 cells [2]; 36 hours post treatment, control 100): 99 fluorescence units | CASP3 protein expression (Panc-1 cells [2]; 36 hours post treatment, control 265): 1220 fluorescence units | BAX protein expression (Panc-1 cells [2]; 36 hours post treatment, control 715): 1670 fluorescence units | COX15 protein expression (Panc-1 cells [2]; 36 hours post treatment, control 722): 1878 fluorescence units | VEGF protein expression (Panc-1 cells [2]; 36 hours post treatment, control 1093): 1195 fluorescence units | MMP-1 protein expression (Panc-1 cells [2]; 36 hours post treatment, control 1316): 1195 fluorescence units | BCL2 protein expression (Panc-1 cells [2]; 36 hours post treatment, control 1410): 1330 fluorescence units | CDKN2A protein expression (Panc-1 cells [2]; 36 hours post treatment, control 1441): 1395 fluorescence units | pRB protein expression (Panc-1 cells [2]; 36 hours post treatment, control 2840): 1978 fluorescence units | Efficacy score (Panc-1 cells [2]; 36 hours): 7.6 | tumor growth inhibition [3]: significant tumor growth inhibition | oral bioavailability [4]: good oral bioavailability
